From PMC5442318, “Hundreds of dual-stage antimalarial molecules discovered by a functional gametocyte screen” (Nature Communications, 2017)
Where two headings read alike, the source gives them in different places.

Tests used:
[1] = tested on: P. falciparum stages IV–V gametocytes; test: Gametocytocidal ATP-depletion assay (gametocyte ATP bioluminescence); format: cell-based, Plasmodium falciparum; conditions: for inhibition at 2 µM: Plasmodium falciparum, mean
Outline: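 Purified stage IV–V gametocytes (12,500/well) incubated with compound for 48 h at 37 °C under 3% O2/5% CO2. ATP measured by BacTiter-Glo luminescence as a viability surrogate; hits tested at 2 μM single concentration.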

HepG2 cells = test: HepG2 cytotoxicity assay; format: cell-based; conditions: for Selectivity ratio: HepG2 TOX50 versus Pf FGAA IC50
Outline: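 After compound incubation, plates and CellTiter-Glo reagent were brought to room temperature for 30 min. The reagent was then added, and luminescence was read after a 10 min room-temperature stabilization.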

[2] = tested on: P. falciparum stage V female gametocytes; test: P. falciparum female gametocyte activation assay (Pf FGAA), 24 h or 48 h preincubation, Pfs25 expression readout; format: cell-based, Plasmodium falciparum NF54; design: key to Biological profile: 49 compounds that were only active with a 48 h exposure (designated as slow-acting); 29 compounds additionally showed activity with only 24 h exposure (designated as fast-acting); when the compounds were added 30 min after triggering gametocyte activation, 12 compounds prevented cell surface expression of Pfs25 (designated as gamete-targeting); conditions: for Pf FGAA classification: SLOW / FAST / GAMETE from activity at 48h, 24h, 0h incubation
Outline: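 Purified stage V gametocytes from P. falciparum NF54 gametocyte cultures were exposed to compounds for 24 h or 48 h at 37 °C under 3% O2/5% CO2, then activated by temperature drop plus xanthurenic acid. Activated females were stained with Cy3-anti-Pfs25 (0.5 μg ml^−1) for 24 h at 26 °C and counted by high-content imaging; pIC50 by nonlinear regression.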

[3] = tested on: P. falciparum asexual blood stages; conditions: cited from earlier work; for IC50: read-out: Pf Asexual blood stages XC50
[4] = tested on: P. falciparum female gametes; test: Pf FGAA with compounds added 30 min after triggering gametocyte activation (gamete-targeting); format: cell-based, Plasmodium falciparum NF54; conditions: 0h incubation time
[5] = Plasmodium falciparum, 24h incubation time, read-out: Pf FGAA IC50 (µM) 24h
[6] = Plasmodium falciparum, P. falciparum female gametocytes, mean, read-out: Gametocytes mean Pf FGAA IC50
[7] = TCAMS asexual blood stage data, ref 1 (Gamo, F. J. et al., Nature 465, 305-310, 2010)
[8] = TCAMS data, ref 1 (Gamo, F. J. et al., Nature 465, 305-310, 2010)
[9] = 24h incubation time, read-out: Pf FGAA IC50 (µM) 24h
[10] = mean, read-out: Gametocytes mean Pf FGAA IC50
[11] = TCAMS data, ref 1 (Gamo et al., 2010)
[12] = P. falciparum female gametocytes, mean, read-out: Gametocytes mean Pf FGAA IC50

Row | SMILES | HepG2 cells mean TOX50 (HepG2 cells; HepG2 cells, mean) [µM] | Pf FGAA classification [2] | IC50 [3, 7] [nM] | Pf Asexual stages XC50 [3, 8] [nM] | Gametocytes mean ATP inhibition at 2µM (%) [1] [%] | HepG2 cells mean TOX50 (HepG2 cells; mean) [µM] | IC50 [2, 9] [µM] | IC50 [3, 11] [nM] | IC50 [4] [µM] | Gametocytes mean ATP inhibition at 2µM [1] [%] | other results
1 | COc1ccc(NC(=O)Nc2ccc(Nc3nc(C)cc(N4CCCC4)n3)cc2)cc1 [TCMDC-124958] | 11.89 | FAST | 140 | 140 |  |  |  |  |  |  | inhibition at 2 µM [1]: -9.01%; Selectivity ratio (HepG2 cells): 11.05; IC50 [2, 5]: 2.16 µM; IC50 [2, 6]: 1.08 µM; IC50 ([4]; Plasmodium falciparum): 10.1 µM
2 | O=C(Nc1ccc([N+](=O)[O-])cc1)Nc1cc(OCC(F)(F)F)cc(OCC(F)(F)F)c1 [TCMDC-124533] | 6.24 | SLOW | 470 | 470 |  |  |  |  |  |  | inhibition at 2 µM [1]: -45.2%; Selectivity ratio (HepG2 cells): 5.40; IC50 [2, 5]: 2.32 µM; IC50 [2, 6]: 1.16 µM; IC50 ([4]; Plasmodium falciparum): 5.64 µM
3 | N#Cc1c(F)cc(N2CCC(NCC[C@H](N)Cc3ccc(F)c(F)c3)CC2)cc1F [TCMDC-132121] |  | SLOW | 860 | 860 |  |  |  |  |  |  | inhibition at 2 µM [1]: 7.46%; Selectivity ratio (HepG2 cells): 6.30; HepG2 cells mean TOX50 (HepG2 cells; human, 48 h): 4.58 µM; IC50 [2, 5]: 7.16 µM; IC50 [2, 6]: 0.73 µM; IC50 ([4]; Plasmodium falciparum): 7.08 µM
4 | CC(=O)Nc1ccc2[nH]cc(C3CCN(CC4CCN(C(=O)/C=C/c5ccc(Cl)c(Cl)c5)CC4)CC3)c2n1 [TCMDC-140112] |  | SLOW |  | 160 | 8.03 | 12.59 | 14.2 | 160 | 13.1 |  | IC50 [2, 10]: 1.38 µM
5 | Cc1ccc(C(C(=O)Nc2ccc(N3CCNCC3)c(Cl)c2)c2ccccc2)cc1 (centres unmarked) [TCMDC-134292] | 11.89 | SLOW | 840 | 840 |  |  | 17 |  | > 20 | 19.42 | IC50 [2, 12]: 0.66 µM
6 | Cc1ccc2c(c1)c(C1CCN(C(=O)c3ccc([N+](=O)[O-])o3)CC1)cn2C [TCMDC-124787] | 28.85 | FAST | 750 | 750 |  |  | 0.88 |  | > 20 | -6.61 | IC50 [2, 12]: 2.12 µM
7 | CN(C)CCOc1ccc(NC(=O)NC(C)(C)c2nc(-c3ccc(Cl)c(O)c3)c(-c3ccncc3)[nH]2)cc1.Cl [TCMDC-140744] |  | FAST |  | 110 | -0.87 | 14.30 | 0.23 | 110 | 10.6 |  | IC50 [2, 10]: 0.73 µM
8 | Clc1nc(Cl)c2c(ccn2Cc2ccccc2)n1 [TCMDC-137801] |  | FAST |  | 790 | -14.95 | >100 | 2.29 | 790 | > 20 |  | HepG2 cells TOX50 (HepG2 cells; HepG2 cells): >100 µM; IC50 [2, 10]: 1.46 µM
9 | CCOc1ccc2c(=NN=Cc3cc(OC)c(OC)cc3OC)cc(C)[nH]c2c1 [TCMDC-142207] |  | SLOW | 1000 | 170 |  |  | 4.97 |  | 6.42 | -8.55 | HepG2 cells mean TOX50 (HepG2 cells; mean, HepG2 cells): 12.17 µM; IC50 ([2]; mean, P. falciparum female gametocyte activation assay, read-out: Gametocytes mean Pf FGAA IC50): 1.22 µM
10 | Clc1cc(Br)ccc1-c1ccc(CNCC2CCNCC2)o1 [TCMDC-124617] | 4.37 | SLOW | 1510 | 1510 |  |  |  |  |  |  | inhibition at 2 µM [1]: -8.62%; Selectivity ratio (HepG2 cells): 6.08; IC50 [2, 5]: > 20 µM; IC50 [2, 6]: 0.72 µM; IC50 ([4]; Plasmodium falciparum): > 20 µM
11 | C[C@H](Cc1ccc(OCCCCCCOc2ccc(C[C@@H](C)N[C@H](C)c3ccccc3)cc2)cc1)NC[C@H](O)c1cccc(Cl)c1.Cl [TCMDC-131564] | 4.28 | SLOW | 240 | 240 |  |  | 2.89 |  | > 20 | 38.50 | IC50 [2, 12]: 0.72 µM
12 | Cc1cc(C(F)(F)F)cc(-n2ncc(-c3ccc(C(=O)NCc4ccccc4N)cc3)c2N)n1.O=C(O)C(F)(F)F [TCMDC-136658] |  | SLOW |  | 450 | -1.42 | 26.82 | 12.5 | 450 | > 20 |  | IC50 [2, 10]: 1.46 µM
13 | CN1CCC(N2CCC(Oc3cccc(C(=O)NCCCC4CCCC4)c3)CC2)CC1 [TCMDC-124677] | 4.90 | SLOW | 840 | 230 |  |  |  |  |  |  | inhibition at 2 µM [1]: -0.79%; Selectivity ratio (HepG2 cells): 3.34; IC50 [2, 5]: 3.87 µM; IC50 [2, 6]: 1.47 µM; IC50 ([4]; Plasmodium falciparum): > 20 µM
14 | N#Cc1ccc(Cn2ccc3c4c(N)nc(N)nc4ccc32)cc1 [TCMDC-137820] |  | FAST |  | 3 | -6.11 | <0.0017 | 1.91 | 3 | 8.15 |  | HepG2 cells TOX50 (HepG2 cells; HepG2 cells): <0.0017 µM; Biological profile ([2]; Pf FGAA with 48 h, 24 h or post-activation addition, active = IC50 below 2 μM): fast-acting; IC50 ([2]; stage V gametocytes, 48 h exposure, read-out: PfFGAA IC50): 1.06 µM
15 | CCOc1ccc(-n2nc3c(Cl)nnc(-c4ccccc4)c3c2-c2ccccc2)cc1 [TCMDC-123899] | >100 | SLOW | 230 | 310 |  |  | > 20 |  | > 20 | -0.60 | HepG2 cells TOX50 (HepG2 cells; HepG2 cells): >100 µM; IC50 [2, 12]: 0.94 µM
16 | CCCc1cc(=O)[nH]c(-n2nc(C)cc2NC(=O)CC(c2ccccc2)c2ccccc2)n1 [TCMDC-124940] | >100 | FAST | 620 | 510 |  |  | 0.41 |  | > 20 | 0.055 | HepG2 cells TOX50 (HepG2 cells; HepG2 cells): >100 µM; IC50 [2, 12]: 1.3 µM
17 | Cl.Fc1cc(Cl)ccc1Nc1ccnc2cc(-c3ccc(CN4CCNCC4)o3)ccc12 [TCMDC-138394] |  | SLOW |  | 280 | 1.31 | 12.05 | 10 | 280 | > 20 |  | IC50 [2, 10]: 1.91 µM
